From ChEMBL document CHEMBL1201862, “PubChem BioAssay data set” (2004)
Values joined by “and” are separate entries in the source; they are usually repeats but may differ in a detail not shown here. Equal values may be shown once. Each block holds one compound with its values, some of them ahead of it. Active and inactive are the calls of the source. Unless noted, no cut-off for these calls is given here.

Legend:
[1] = molecular target: T1, Hexokinase HKDC1 (Homo sapiens, UniProt Q2TB90); assay: HKDC1 hexokinase activators, dose response, biochemical, W721R variant (AID 504730); assay type: functional
T1 sequence (Q2TB90 whole entry): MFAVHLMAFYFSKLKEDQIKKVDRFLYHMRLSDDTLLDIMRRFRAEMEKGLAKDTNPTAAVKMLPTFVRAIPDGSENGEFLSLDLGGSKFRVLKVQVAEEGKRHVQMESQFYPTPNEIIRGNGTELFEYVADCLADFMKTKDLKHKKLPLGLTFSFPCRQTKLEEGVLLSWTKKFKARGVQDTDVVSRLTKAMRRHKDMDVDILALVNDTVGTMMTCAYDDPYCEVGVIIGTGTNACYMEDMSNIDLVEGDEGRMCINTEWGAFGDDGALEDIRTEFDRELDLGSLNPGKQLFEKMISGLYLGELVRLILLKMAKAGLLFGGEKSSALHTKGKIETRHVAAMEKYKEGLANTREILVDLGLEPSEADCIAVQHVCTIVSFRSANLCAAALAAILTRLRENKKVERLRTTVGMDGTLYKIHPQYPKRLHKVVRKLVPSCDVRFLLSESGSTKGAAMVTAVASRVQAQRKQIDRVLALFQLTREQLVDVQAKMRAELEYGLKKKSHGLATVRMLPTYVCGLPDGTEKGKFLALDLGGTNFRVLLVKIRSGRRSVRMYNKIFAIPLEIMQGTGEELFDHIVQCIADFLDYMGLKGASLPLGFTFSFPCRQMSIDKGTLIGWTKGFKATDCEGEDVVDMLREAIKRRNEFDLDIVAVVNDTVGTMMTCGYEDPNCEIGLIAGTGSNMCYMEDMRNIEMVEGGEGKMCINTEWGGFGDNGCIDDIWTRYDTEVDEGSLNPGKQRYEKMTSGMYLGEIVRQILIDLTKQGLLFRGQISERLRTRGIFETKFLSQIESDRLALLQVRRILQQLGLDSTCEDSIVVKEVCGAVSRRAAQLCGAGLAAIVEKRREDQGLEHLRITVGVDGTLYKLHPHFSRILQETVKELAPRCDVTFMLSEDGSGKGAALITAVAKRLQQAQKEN

[2] = molecular target: T2, fMet-Leu-Phe receptor (Homo sapiens, UniProt P21462); assay: FPR ligands, dose response (AID 519); assay type: functional
T2 sequence (P21462 whole entry): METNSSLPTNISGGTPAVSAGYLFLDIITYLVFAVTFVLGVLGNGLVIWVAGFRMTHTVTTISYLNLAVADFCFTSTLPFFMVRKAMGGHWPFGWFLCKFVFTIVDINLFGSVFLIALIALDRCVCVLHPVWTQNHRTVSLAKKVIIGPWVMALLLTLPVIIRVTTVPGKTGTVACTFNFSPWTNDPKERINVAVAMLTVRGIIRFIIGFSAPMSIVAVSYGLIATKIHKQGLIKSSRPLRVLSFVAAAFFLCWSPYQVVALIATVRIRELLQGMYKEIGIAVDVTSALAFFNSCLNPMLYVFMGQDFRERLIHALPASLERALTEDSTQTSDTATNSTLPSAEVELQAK

[3] = molecular target: Peroxisome proliferator-activated receptor gamma/Nuclear receptor coactivator 1 (Homo sapiens, UniProt P37231); assay: (§1) TR-FRET dose response biochemical High Throughput Screening assay for agonists of the steroid receptor coactivator 1 (SRC-1) recruitment by the peroxisome proliferator-activated receptor gamma (PPAR gamma): non-selective agonists. [Related pubchem assays (depositor defined):AID1300, AID1808, AID504735, AID631]; assay type: protein assay
Chain of Peroxisome proliferator-activated receptor gamma/Nuclear receptor coactivator 1 (P37231 whole entry): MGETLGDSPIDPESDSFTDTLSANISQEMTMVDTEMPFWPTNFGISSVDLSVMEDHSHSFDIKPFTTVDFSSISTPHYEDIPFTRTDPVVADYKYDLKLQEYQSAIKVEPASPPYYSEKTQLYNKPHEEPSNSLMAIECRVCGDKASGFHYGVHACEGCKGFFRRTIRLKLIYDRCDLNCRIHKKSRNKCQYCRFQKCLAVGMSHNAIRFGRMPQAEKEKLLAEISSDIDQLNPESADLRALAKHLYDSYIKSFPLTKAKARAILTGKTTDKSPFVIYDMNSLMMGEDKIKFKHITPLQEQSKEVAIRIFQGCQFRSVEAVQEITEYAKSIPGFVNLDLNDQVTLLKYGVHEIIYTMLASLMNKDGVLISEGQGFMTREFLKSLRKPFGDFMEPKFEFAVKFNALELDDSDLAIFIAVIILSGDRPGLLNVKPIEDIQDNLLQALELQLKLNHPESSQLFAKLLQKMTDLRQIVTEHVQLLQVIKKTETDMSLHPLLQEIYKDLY
Chain of Peroxisome proliferator-activated receptor gamma/Nuclear receptor coactivator 1 (Q15788 whole entry, further chain): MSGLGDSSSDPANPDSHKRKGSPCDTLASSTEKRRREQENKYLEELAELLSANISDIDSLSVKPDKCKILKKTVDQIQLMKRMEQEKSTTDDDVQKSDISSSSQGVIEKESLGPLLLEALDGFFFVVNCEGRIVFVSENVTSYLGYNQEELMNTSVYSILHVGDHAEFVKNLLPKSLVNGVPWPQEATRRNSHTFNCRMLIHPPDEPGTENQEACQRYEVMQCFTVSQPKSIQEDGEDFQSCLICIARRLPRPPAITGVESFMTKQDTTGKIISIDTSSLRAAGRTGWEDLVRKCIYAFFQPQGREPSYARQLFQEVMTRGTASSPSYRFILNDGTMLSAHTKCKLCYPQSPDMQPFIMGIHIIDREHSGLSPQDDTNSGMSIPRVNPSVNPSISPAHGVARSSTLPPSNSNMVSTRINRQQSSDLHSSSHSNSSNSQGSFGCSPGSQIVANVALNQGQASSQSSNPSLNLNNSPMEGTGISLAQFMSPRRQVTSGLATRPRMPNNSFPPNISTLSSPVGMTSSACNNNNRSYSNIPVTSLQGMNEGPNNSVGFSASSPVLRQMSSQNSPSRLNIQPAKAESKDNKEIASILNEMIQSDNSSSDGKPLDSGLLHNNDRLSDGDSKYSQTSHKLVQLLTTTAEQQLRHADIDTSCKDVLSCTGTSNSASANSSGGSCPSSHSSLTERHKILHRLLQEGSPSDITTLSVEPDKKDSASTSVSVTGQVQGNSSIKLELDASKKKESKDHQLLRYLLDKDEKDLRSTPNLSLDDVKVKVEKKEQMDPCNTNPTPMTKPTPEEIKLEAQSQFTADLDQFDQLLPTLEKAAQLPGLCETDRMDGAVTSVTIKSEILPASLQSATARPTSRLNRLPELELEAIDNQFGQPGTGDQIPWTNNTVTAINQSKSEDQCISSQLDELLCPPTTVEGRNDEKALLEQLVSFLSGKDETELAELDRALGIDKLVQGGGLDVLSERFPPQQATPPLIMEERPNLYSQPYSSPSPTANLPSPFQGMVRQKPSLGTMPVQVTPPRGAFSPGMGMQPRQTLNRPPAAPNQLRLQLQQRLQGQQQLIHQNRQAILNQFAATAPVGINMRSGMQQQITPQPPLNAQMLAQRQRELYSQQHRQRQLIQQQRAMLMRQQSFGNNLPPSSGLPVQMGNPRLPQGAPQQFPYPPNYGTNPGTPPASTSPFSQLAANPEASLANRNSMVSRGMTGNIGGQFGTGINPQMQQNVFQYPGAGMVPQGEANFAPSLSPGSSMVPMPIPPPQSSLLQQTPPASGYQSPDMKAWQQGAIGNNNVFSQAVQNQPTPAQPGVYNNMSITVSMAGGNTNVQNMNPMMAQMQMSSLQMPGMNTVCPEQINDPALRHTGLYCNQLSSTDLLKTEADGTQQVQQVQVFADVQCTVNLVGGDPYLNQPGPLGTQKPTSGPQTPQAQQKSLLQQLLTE

[4] = molecular target: Peroxisome proliferator-activated receptor gamma/Nuclear receptor coactivator 3 (Homo sapiens, UniProt P37231); assay: as §1, with “3 (SRC-3)” for “1 (SRC-1)”, “assays: 1301 (Confirmation screen.), 1048 (Primary screen.)]” for “assays (depositor defined):AID1300, AID1808, AID504735, AID631]”; assay type: functional
Chain of Peroxisome proliferator-activated receptor gamma/Nuclear receptor coactivator 3 (P37231 whole entry): as the sequence (P37231 whole entry) above
Chain of Peroxisome proliferator-activated receptor gamma/Nuclear receptor coactivator 3 (Q9Y6Q9 whole entry, further chain): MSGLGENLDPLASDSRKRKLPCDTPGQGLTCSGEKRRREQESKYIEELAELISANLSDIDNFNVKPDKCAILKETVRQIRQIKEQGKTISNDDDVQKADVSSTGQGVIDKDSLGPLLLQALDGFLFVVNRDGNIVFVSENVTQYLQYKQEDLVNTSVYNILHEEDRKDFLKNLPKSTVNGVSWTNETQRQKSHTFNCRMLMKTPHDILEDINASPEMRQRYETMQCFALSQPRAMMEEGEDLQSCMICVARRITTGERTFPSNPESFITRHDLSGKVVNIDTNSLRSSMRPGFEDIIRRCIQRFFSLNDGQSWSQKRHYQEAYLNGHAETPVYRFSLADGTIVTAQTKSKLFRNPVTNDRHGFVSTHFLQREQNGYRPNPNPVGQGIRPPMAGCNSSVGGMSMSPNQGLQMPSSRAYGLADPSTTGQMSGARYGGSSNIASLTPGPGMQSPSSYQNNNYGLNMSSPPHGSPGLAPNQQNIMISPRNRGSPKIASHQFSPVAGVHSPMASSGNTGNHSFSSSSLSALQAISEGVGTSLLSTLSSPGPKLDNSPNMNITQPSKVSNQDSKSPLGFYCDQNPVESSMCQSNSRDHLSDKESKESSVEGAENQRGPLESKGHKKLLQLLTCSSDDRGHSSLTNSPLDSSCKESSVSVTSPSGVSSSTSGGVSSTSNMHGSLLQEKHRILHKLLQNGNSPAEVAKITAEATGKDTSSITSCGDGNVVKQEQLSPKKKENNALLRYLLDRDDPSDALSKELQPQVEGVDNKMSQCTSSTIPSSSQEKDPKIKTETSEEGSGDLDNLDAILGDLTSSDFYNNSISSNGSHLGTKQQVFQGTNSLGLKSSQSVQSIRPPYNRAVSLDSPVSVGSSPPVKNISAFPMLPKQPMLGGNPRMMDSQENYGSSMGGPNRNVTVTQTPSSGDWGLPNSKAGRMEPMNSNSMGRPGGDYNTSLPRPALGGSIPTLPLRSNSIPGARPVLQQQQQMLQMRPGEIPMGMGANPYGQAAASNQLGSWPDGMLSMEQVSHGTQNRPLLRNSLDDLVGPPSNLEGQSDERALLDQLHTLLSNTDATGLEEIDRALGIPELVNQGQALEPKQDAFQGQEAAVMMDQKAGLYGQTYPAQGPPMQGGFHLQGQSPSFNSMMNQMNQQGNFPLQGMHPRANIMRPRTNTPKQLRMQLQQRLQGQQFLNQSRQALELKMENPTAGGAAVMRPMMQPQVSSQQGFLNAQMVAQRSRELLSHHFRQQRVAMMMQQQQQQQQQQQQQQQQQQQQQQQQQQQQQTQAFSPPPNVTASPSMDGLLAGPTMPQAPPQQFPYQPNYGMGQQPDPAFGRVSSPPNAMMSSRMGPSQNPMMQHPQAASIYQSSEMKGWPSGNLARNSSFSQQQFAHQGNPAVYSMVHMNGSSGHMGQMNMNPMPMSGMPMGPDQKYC

[5] = molecular target: Peroxisome proliferator-activated receptor gamma/Nuclear receptor coactivator 2 (Homo sapiens, UniProt P37231); assay: TR-FRET dose response biochemical High Throughput Screening assay for agonists of the steroid receptor coactivator 2 (SRC-2) recruitment by the peroxisome proliferator-activated receptor gamma (PPAR gamma): non-selective agonists. [Related pubchem assays: 1297, 1032 ]; assay type: functional
[6] = molecular target: Cytochrome P450 3A4 (Homo sapiens, UniProt P08684);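 note: CYP3A4 tested as one member of a cytochrome P450 panel screen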
Chain of Cytochrome P450 3A4 (P08684 whole entry, the tested form may be a part): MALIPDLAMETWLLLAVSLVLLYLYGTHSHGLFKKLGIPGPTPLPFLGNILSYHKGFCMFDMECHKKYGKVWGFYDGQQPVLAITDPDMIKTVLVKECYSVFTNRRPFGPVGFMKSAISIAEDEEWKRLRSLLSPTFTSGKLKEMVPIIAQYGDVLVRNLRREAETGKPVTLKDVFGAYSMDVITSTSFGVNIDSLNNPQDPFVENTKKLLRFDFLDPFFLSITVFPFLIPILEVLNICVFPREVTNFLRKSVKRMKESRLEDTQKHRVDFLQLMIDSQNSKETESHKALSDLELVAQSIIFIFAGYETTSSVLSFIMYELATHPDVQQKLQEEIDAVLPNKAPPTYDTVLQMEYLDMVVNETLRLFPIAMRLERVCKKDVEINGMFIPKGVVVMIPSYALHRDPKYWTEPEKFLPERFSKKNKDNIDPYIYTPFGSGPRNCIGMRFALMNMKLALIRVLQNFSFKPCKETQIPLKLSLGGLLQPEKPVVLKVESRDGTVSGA

[7] = molecular target: T3, E3 ubiquitin-protein ligase XIAP (Homo sapiens, UniProt P98170); assay: SAR analysis of Antagonists of XIAP-Bir3 domain of IAP-family anti-apoptotic proteins. [Related pubchem assays (depositor defined):AID1018, AID1449, AID1513, AID1514, AID1638]
T3 sequence (P98170 whole entry, the tested form may be a part): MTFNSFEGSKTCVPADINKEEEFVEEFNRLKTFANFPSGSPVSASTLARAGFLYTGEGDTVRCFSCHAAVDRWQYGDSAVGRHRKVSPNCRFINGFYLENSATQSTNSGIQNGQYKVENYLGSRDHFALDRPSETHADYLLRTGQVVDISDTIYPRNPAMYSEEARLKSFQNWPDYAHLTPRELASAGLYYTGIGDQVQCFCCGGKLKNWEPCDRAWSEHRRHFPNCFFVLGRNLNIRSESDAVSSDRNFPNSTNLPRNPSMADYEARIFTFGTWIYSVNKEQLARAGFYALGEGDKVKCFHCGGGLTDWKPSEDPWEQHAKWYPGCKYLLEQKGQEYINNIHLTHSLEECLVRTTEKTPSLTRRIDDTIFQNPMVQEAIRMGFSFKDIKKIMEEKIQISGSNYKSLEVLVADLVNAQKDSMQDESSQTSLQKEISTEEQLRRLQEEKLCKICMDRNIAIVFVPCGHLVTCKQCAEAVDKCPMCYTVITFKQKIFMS

[8] = molecular target: T3, E3 ubiquitin-protein ligase XIAP; assay: SAR analysis of Antagonists of IAP-family anti-apoptotic proteins. [Related pubchem assays (depositor defined):AID1018, AID1449, AID1513, AID1514, AID1638]
[9] = tested on: T-cell; assay: inhibitors of CD8+ T cell–vesicle binding, dose response, mouse 2C CD8+ T cells, flow cytometry (AID 485284); assay type: functional
[10] = molecular target: T4, Short transient receptor potential channel 4 (Mus musculus, UniProt Q9QUQ5); assay: TRPC4 positive allosteric modulators, dose response, cell-based, HEK293 TRPC4/mu-opioid, Fluo-4 calcium, EC20 DAMGO (AID 434941); assay type: functional
T4 sequence (Q9QUQ5 whole entry): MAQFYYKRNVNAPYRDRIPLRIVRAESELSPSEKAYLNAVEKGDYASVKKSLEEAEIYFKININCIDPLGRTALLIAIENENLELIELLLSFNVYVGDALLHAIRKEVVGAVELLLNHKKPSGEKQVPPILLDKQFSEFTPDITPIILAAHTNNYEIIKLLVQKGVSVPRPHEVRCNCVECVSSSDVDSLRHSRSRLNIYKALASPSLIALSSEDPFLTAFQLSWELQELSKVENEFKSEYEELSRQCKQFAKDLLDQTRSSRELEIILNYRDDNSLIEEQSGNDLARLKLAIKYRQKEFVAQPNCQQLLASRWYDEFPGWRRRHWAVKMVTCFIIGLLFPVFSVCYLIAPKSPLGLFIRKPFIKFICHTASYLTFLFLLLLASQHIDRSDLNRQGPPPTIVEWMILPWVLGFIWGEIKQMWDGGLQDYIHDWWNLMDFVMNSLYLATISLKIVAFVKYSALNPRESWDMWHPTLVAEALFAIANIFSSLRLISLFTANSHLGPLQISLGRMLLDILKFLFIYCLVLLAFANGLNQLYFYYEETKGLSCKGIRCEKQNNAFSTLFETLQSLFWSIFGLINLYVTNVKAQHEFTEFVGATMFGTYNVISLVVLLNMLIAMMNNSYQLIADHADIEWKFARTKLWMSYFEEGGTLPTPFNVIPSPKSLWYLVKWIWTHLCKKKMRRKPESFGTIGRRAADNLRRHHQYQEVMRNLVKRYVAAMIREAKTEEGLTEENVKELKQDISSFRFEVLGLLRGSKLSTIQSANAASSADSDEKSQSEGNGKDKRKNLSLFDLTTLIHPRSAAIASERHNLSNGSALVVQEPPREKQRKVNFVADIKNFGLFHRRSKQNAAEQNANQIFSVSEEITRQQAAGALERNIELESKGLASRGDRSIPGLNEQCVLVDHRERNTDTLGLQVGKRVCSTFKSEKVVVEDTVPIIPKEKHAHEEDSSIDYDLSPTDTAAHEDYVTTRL

EC50 [1]: > 80 µM (inactive) | Ki [2]: 29.7 µM (inactive)
Structure (SMILES): COCc1cc(C2C(C(=O)c3ccco3)=C(O)C(=O)N2CCOCCO)ccc1O (stereo not given)

EC50 [3]: > 79.4 µM (inactive) | EC50 [4]: > 79.4 µM (not active) | EC50 [5]: > 79.4 µM (not active) | AC50 [6]: 22.4 µM (inconclusive)
Structure (SMILES): CCOC(=O)CSc1cc(=O)n(C)c2cc(Cl)ccc12

IC50 [7]: 530 nM (active) and 980 nM (active) | IC50 [8]: 9.7 µM (active) and 13.7 µM (active)
Structure (SMILES): CC[C@H](NC(=O)[C@H](C)NC)C(=O)N1CCC[C@H]1C(=O)NC1CCCc2ccccc21 (stereo not given in full)

Structure (SMILES): CCCCn1nc(C(=O)N2CCN(S(=O)(=O)c3ccccc3)CC2)c2ccccc2c1=O
EC50 [9]: 10.3 µM (active)

EC50 [10]: 2.99 µM (active)
Structure (SMILES): O=C(Nc1ccccc1)C1=C[C@H](C2CCCCC2)C[C@H](OCc2ccc(CO)cc2)O1
